# The source made the active and inactive calls. The calls are words filed in the database; no cut-off is given here.
# Key:
# MCF7 [1] = assay: Cell cycle arrest in human MCF7 cells assessed as accumulation at G0/G1 phase at 8 uM after 24 hrs by propidium iodide staining-based flow cytometry (reference value: 64.68 to 80.32%); format: functional
# MCF7 [2] = assay: Cell cycle arrest in human MCF7 cells assessed as accumulation at S phase at 2 uM after 24 hrs by propidium iodide staining-based flow cytometry (reference value: 15.95 to 25.74%); format: functional
# MCF7 [3] = assay: Cell cycle arrest in human MCF7 cells assessed as accumulation at S phase at 4 uM after 24 hrs by propidium iodide staining-based flow cytometry (reference value: 15.95 to 25.74%); format: functional
# MCF7 [4] = assay: Cell cycle arrest in human MCF7 cells assessed as accumulation at S phase at 8 uM after 24 hrs by propidium iodide staining-based flow cytometry (reference value: 15.95 to 25.74%); format: functional
# MCF7 [5] = assay: Cell cycle arrest in human MCF7 cells assessed as accumulation at G2/M phase at 2 uM after 24 hrs by propidium iodide staining-based flow cytometry (reference value: 3.73 to 10.75%); format: functional
# MCF7 [6] = assay: Cell cycle arrest in human MCF7 cells assessed as accumulation at G2/M phase at 4 uM after 24 hrs by propidium iodide staining-based flow cytometry (reference value: 3.73 to 10.75%); format: functional
# MCF7 [7] = assay: Cell cycle arrest in human MCF7 cells assessed as accumulation at G2/M phase at 8 uM after 24 hrs by propidium iodide staining-based flow cytometry (reference value: 3.73 to 10.75%); format: functional
# MCF7 [8] = assay: Cytotoxicity against human MCF7 cells after 36 hrs by MTT assay; format: functional, cell-based; conditions: MCF7, 36 h
# A549 = assay: Cytotoxicity against human A549 cells after 36 hrs by MTT assay; format: functional, cell-based; conditions: A549, 36 h
# HeLa = assay: Cytotoxicity against human HeLa cells after 36 hrs by MTT assay; format: functional, cell-based
# [9] = Cytotoxicity against HEK293T cells after 36 hrs by MTT assay; format: cell-based; conditions: Homo sapiens, HEK-293T
# MCF7 [10] = assay: Induction of apoptosis in human MCF7 cells assessed as necrotic cells at 1 uM after 24 hrs by Annexin V-FITC/propidium iodide staining-based flow cytometry (reference value: 0.021 to 3.8%); format: functional
# MCF7 [11] = assay: Induction of apoptosis in human MCF7 cells assessed as necrotic cells at 2 uM after 24 hrs by Annexin V-FITC/propidium iodide staining-based flow cytometry (reference value: 0.021 to 3.8%); format: functional
# MCF7 [12] = assay: Induction of apoptosis in human MCF7 cells assessed as necrotic cells at 4 uM after 24 hrs by Annexin V-FITC/propidium iodide staining-based flow cytometry (reference value: 0.021 to 3.8%); format: functional
# MCF7 [13] = assay: Induction of apoptosis in human MCF7 cells assessed as necrotic cells at 8 uM after 24 hrs by Annexin V-FITC/propidium iodide staining-based flow cytometry (reference value: 0.021 to 3.8%); format: functional
# MCF7 [14] = assay: Induction of apoptosis in human MCF7 cells assessed as late apoptotic cells at 1 uM after 24 hrs by Annexin V-FITC/propidium iodide staining-based flow cytometry (reference value: 5.92 to 9.33%); format: functional
# MCF7 [15] = assay: Cell cycle arrest in human MCF7 cells assessed as accumulation at G0/G1 phase at 2 uM after 24 hrs by propidium iodide staining-based flow cytometry (reference value: 64.68 to 80.32%); format: functional
# MCF7 [16] = assay: Cell cycle arrest in human MCF7 cells assessed as accumulation at G0/G1 phase at 4 uM after 24 hrs by propidium iodide staining-based flow cytometry (reference value: 64.68 to 80.32%); format: functional
# MCF7 [17] = assay: Induction of apoptosis in human MCF7 cells assessed as late apoptotic cells at 2 uM after 24 hrs by Annexin V-FITC/propidium iodide staining-based flow cytometry (reference value: 5.92 to 9.33%); format: functional
# MCF7 [18] = assay: Induction of apoptosis in human MCF7 cells assessed as late apoptotic cells at 4 uM after 24 hrs by Annexin V-FITC/propidium iodide staining-based flow cytometry (reference value: 5.92 to 9.33%); format: functional
# MCF7 [19] = assay: Induction of apoptosis in human MCF7 cells assessed as late apoptotic cells at 8 uM after 24 hrs by Annexin V-FITC/propidium iodide staining-based flow cytometry (reference value: 5.92 to 9.33%); format: functional
# MCF7 [20] = assay: Induction of apoptosis in human MCF7 cells assessed as early apoptotic cells at 1 uM after 24 hrs by Annexin V-FITC/propidium iodide staining-based flow cytometry (reference value: 2.45 to 6.92%); format: functional
# MCF7 [21] = assay: Induction of apoptosis in human MCF7 cells assessed as early apoptotic cells at 2 uM after 24 hrs by Annexin V-FITC/propidium iodide staining-based flow cytometry (reference value: 2.45 to 6.92%); format: functional
# MCF7 [22] = assay: Induction of apoptosis in human MCF7 cells assessed as early apoptotic cells at 4 uM after 24 hrs by Annexin V-FITC/propidium iodide staining-based flow cytometry (reference value: 2.45 to 6.92%); format: functional
# MCF7 [23] = assay: Induction of apoptosis in human MCF7 cells assessed as early apoptotic cells at 8 uM after 24 hrs by Annexin V-FITC/propidium iodide staining-based flow cytometry (reference value: 2.45 to 6.92%); format: functional
# MCF7 [24] = assay: Induction of apoptosis in human MCF7 cells assessed as viable cells at 1 uM after 24 hrs by Annexin V-FITC/propidium iodide staining-based flow cytometry (reference value: 80 to 91.6%); format: functional; conditions: MCF7, 24 h, read-out: Activity
# MCF7 [25] = assay: Induction of apoptosis in human MCF7 cells assessed as viable cells at 2 uM after 24 hrs by Annexin V-FITC/propidium iodide staining-based flow cytometry (reference value: 80 to 91.6%); format: functional; conditions: MCF7, 24 h, read-out: Activity
# MCF7 [26] = assay: Induction of apoptosis in human MCF7 cells assessed as viable cells at 4 uM after 24 hrs by Annexin V-FITC/propidium iodide staining-based flow cytometry (reference value: 80 to 91.6%); format: functional; conditions: MCF7, 24 h, read-out: Activity
# MCF7 [27] = assay: Induction of apoptosis in human MCF7 cells assessed as viable cells at 8 uM after 24 hrs by Annexin V-FITC/propidium iodide staining-based flow cytometry (reference value: 80 to 91.6%); format: functional; conditions: MCF7, 24 h, read-out: Activity
# MCF7 [28] = assay: Induction of apoptosis in human MCF7 cells after 24 hrs by Annexin V-FITC/propidium iodide staining-based flow cytometry; format: functional, cell-based
# MCF7 [29] = assay: Upregulation of CDK1 in human MCF7 cells at 2 to 8 uM after 24 hrs by Western blot analysis; format: functional, cell-based
# MCF7 [30] = assay: Downregulation of cyclin B1 in human MCF7 cells at 2 to 8 uM after 24 hrs by Western blot analysis; format: functional, cell-based
# MCF7 [31] = assay: Induction of apoptosis in human MCF7 cells assessed as increase in PARP cleavage at 8 uM after 24 hrs by Western blot analysis; format: functional, cell-based
# Tubulin (Homo sapiens) = Tubulin (Homo sapiens) (UniProt P68371+Q9H4B7+P0DPH7+P68366+Q13509+Q71U36+P04350+Q3ZCM7+P07437+P68363+Q9BQE3+Q6PEY2+Q13885+Q9BVA1+Q9BUF5); assay: Inhibition of tubulin polymerization in human MCF7 cells assessed as alteration of interphase microtubule network at 4 uM after 24 hrs by DAPI staining-based confocal microscopic analysis; format: cell-based
SMILES,Activity (MCF7 [1]) [%],Activity (MCF7 [2]) [%],Activity (MCF7 [3]) [%],Activity (MCF7 [4]) [%],Activity (MCF7 [5]) [%],Activity (MCF7 [6]) [%],Activity (MCF7 [7]) [%],IC50 (MCF7 [8]) [µM],IC50 (A549) [µM],IC50 (HeLa) [µM],IC50 [9] [µM],Activity (MCF7 [10]) [%],Activity (MCF7 [11]) [%],Activity (MCF7 [12]) [%],Activity (MCF7 [13]) [%],Activity (MCF7 [14]) [%],Activity (MCF7 [15]) [%],Activity (MCF7 [16]) [%],Activity (MCF7 [17]) [%],Activity (MCF7 [18]) [%],also measured
COc1cc([C@@H]2c3cc4c(cc3[C@H](O)[C@H]3COC(=O)[C@H]23)OCO4)cc(OC)c1OC [PODOFILOX],27.1,53.55,19.36,57.7,11.97,12.77,15.2,1.11,1.36,1.45,1.54,0.037,0.021,0.032,0.042,4.34,34.48,67.87,6.26,3.57,Activity (MCF7 [19]): 4.97%; Activity (MCF7 [20]): 2.33%; Activity (MCF7 [21]): 2.95%; Activity (MCF7 [22]): 3.35%; Activity (MCF7 [23]): 3.24%; viability at 1 µM (MCF7 [24]): 93.3%; viability at 2 µM (MCF7 [25]): 90.8%; viability at 4 µM (MCF7 [26]): 93.1%; viability at 8 µM (MCF7 [27]): 91.8%
O=C1OC(=O)C2C3CCC(O3)C12 (configuration not stated),31.77,42.95,47.21,45.68,15.64,16.7,22.55,12.1,15.7,9.03,9.81,5.89,4.21,11.6,14.2,14.5,41.61,36.09,20.8,22,Activity (MCF7 [19]): 41.3%; Activity (MCF7 [20]): 5.68%; Activity (MCF7 [21]): 6.04%; Activity (MCF7 [22]): 8.3%; Activity (MCF7 [23]): 11%; viability at 1 µM (MCF7 [24]): 74%; viability at 2 µM (MCF7 [25]): 69%; viability at 4 µM (MCF7 [26]): 58.1%; viability at 8 µM (MCF7 [27]): 33.5%
COc1cc([C@@H]2c3cc4c(cc3[C@@H](O[C@@H]3O[C@@H]5CO[C@@H](C)O[C@H]5[C@H](O)[C@H]3O)[C@H]3COC(=O)[C@H]23)OCO4)cc(OC)c1O [ETOPOSIDE],–,–,–,–,–,–,–,1.74,8.01,4.39,11.5,–,–,–,–,–,–,–,–,–,–
COc1cc(C2c3cc4c(cc3[C@H](OC(=O)[C@H](C)N3C(=O)c5ccccc5C3=O)[C@H]3COC(=O)[C@H]23)OCO4)cc(OC)c1OC (some centres not stated),–,–,–,–,–,–,–,18.3,5.89,19,88.6,–,–,–,–,–,–,–,–,–,–
COc1cc(C2c3cc4c(cc3[C@H](OC(=O)[C@H](Cc3ccccc3)N3C(=O)C5CCCCC5C3=O)[C@H]3COC(=O)[C@H]23)OCO4)cc(OC)c1OC (some centres not stated),–,–,–,–,–,–,–,8.24,4.92,8.28,42.6,–,–,–,–,–,–,–,–,–,–
COc1cc(C2c3cc4c(cc3[C@H](OC(=O)C(Cc3ccccc3)N3C(=O)C5C6CCC(O6)C5C3=O)[C@H]3COC(=O)[C@H]23)OCO4)cc(OC)c1OC (some centres not stated),8.17,45.05,43.82,32.22,32.33,38.94,59.61,0.88,7.82,3.21,54.4,0.021,0,0.03,0.022,14.2,22.62,17.24,4.51,6.15,Activity (MCF7 [28]): Dose-dependent effect; Activity (MCF7 [19]): 6.97%; Activity (MCF7 [20]): 50.3%; Activity (MCF7 [21]): 80.1%; Activity (MCF7 [22]): 73.1%; Activity (MCF7 [23]): 61.9%; viability at 1 µM (MCF7 [24]): 35.4%; viability at 2 µM (MCF7 [25]): 15.4%; viability at 4 µM (MCF7 [26]): 20.7%; viability at 8 µM (MCF7 [27]): 31.1%; Activity (MCF7 [29]): inactive; Activity (MCF7 [30]): Active; Activity (MCF7 [31]): Active; inhibition (Tubulin (Homo sapiens)): Active
COc1cc(C2c3cc4c(cc3[C@H](OC(=O)[C@@H](Cc3ccccc3)N3C(=O)C5CCCCC5C3=O)[C@H]3COC(=O)[C@H]23)OCO4)cc(OC)c1OC (some centres not stated),–,–,–,–,–,–,–,3.73,3.89,3.89,63.4,–,–,–,–,–,–,–,–,–,–
COc1cc(C2c3cc4c(cc3[C@H](OC(=O)C(Cc3ccccc3)N3C(=O)C5CCCCC5C3=O)[C@H]3COC(=O)[C@H]23)OCO4)cc(OC)c1OC (some centres not stated),–,–,–,–,–,–,–,1.17,1.72,2.22,61.5,–,–,–,–,–,–,–,–,–,–
